Assays:
rats = assay: Acute toxicity study in rats, single oral dose; type: in vivo
Method: Acute toxicity studies in rats were undertaken to assess the tolerance of a single oral dose of compound (2) formulated in water. […] Complete recovery from hypoactivity, sedation, and anesthesia occurred in all rats within about 8 hours after dose. Doses above about 1552 mg-eq/kg (about 800 mg-eq/kg of propofol) were not tested.

male beagle dogs = assay: Acute toxicity study in dogs, single oral dose; type: in vivo
Method: Acute toxicity studies were also performed by orally administering a single dose of compound (2) formulated in water to groups of male beagle dogs at doses from about 25 mg-eq/kg to about 150 mg-eq/kg.

male rats = assay: Multiple dose study in rats, five days, oral gavage once a day; type: in vivo; conditions: 49 to 97 mg-eq/kg orally once a day for five days
Method: Multiple dose studies in rats were performed by orally administering compound (2) formulated in water to groups of male rats at doses of 49 mg-eq/kg to 97 mg-eq/kg for a period of five days, by oral gavages administered once a day.

[1] = orally administered as a homogeneous liquid suspension, relative to an equivalent intravenous dose of propofol; cited from earlier work
[2] = oral dosing, rats; cited from earlier work

Structure (SMILES)	Time to complete recovery from hypoactivity, sedation, and anesthesia after dose (rats; all rats, single oral dose)	Tolerance of a single oral dose (rats; rats, about 49 mg-eq/kg to about 1552 mg-eq/kg of administered compound, in water)	Hypoactivity (rats; rats, single oral dose about 49 up to about 388 mg-eq/kg, within about 30 minutes of dose, maintained up to 4 hours post dose)	Sedation (rats; rats, single oral dose about 582 up to about 970 mg-eq/kg, within about 1.5 hours of dose, lasted up to 4 hours post dose)	Anesthesia (rats; rats, single oral dose about 1164 up to about 1552 mg-eq/kg, within about 1 hour of dose, lasted up to about 2 hours post dose)	Tolerance of a single oral dose (male beagle dogs; about 25 mg-eq/kg to about 150 mg-eq/kg, in water)	Sedation or anesthesia (male beagle dogs; single oral dose about 25 to about 150 mg-eq/kg)	Adverse effects (male rats)	Sedation or anesthesia (male rats)	Tolerance of multiple doses (male rats)	Oral bioavailability [1]	Administered drug undergoing first pass metabolism [2]
CC(C)c1cccc(C(C)C)c1OC(=O)OC[C@H](N)C(=O)O (stereo in doubt) [compound (2), 2-amino-3-(2,6-diisopropyl-phenoxycarbonyloxy)-propanoic acid]	≤ 8 h	well tolerated	Transient hypoactivity was observed	Sedation was observed	Anesthesia was observed	well tolerated	No sedation or anesthesia was observed	No adverse effects were observed	No sedation or anesthesia was observed	well tolerated		
CC(C)c1cccc(C(C)C)c1O [propofol, 2,6-diisopropylphenol]											less than 5%	approximately 90%

From US20080161400A1, “USE OF FORMS OF PROPOFOL FOR TREATING DISEASES ASSOCIATED WITH OXIDATIVE STRESS” (XenoPort, Inc., priority 2006, published 2008)
